Laboratory results reported in EPA's ToxValDB 9.5 (doi:10.2903/j.efsa.2011.1941).

Legend:
Aphidius rhopalosiphi = conditions: chronic/long-term
Apis mellifera = conditions: acute; duration: 48 hours; dermal; mortality
Daphnia magna = conditions: chronic/long-term; duration: 21 days; reproduction
Lepomis macrochirus = conditions: acute; duration: 96 hours; mortality
Pimephales promelas = conditions: chronic/long-term; duration: 36 days; growth
Typhlodromus pyri = conditions: chronic/long-term

With `Nc1ccc(OC(F)(F)F)cc1` [4-Trifluoromethoxyaniline] the NOAEL (Rattus norvegicus; short-term, duration: 6 days) was 0.5 mg/kg-day.

Molecule `O=C(NC(=O)c1ccccc1Cl)Nc1ccc(OC(F)(F)F)cc1` [Triflumuron] has an NOEC (Anas platyrhynchos; reproductive) of 6.9 mg/kg-day, an LC50 (Anas platyrhynchos; short-term, oral, feed, mortality) of 180 mg/kg-day and an LEL (Aphidius rhopalosiphi; mortality) of 300 g/ha. The LEL (Aphidius rhopalosiphi; reproduction) was 300 g/ha, the LD50 (Apis mellifera) was > 200 µg/piece and the LC50 (Colinus virginianus; acute, oral, diet, mortality) was > 805 mg/kg-day. For the same molecule, the LD50 (Colinus virginianus; acute, oral, mortality) was 561 mg/kg-day, the NOEC (Colinus virginianus; reproduction developmental) was 1.65 mg/kg-day and the NOEC (Daphnia magna) was 3.2e-05 mg/L. For the same molecule, the LC50 (Lepomis macrochirus) was > 0.0208 µg/mL, the NOEC (Pimephales promelas) was ≥ 0.0228 mg/L and the LD50 (Rattus norvegicus; acute, oral, mortality) was > 5000 mg/kg-day. It also gave an NOEL (Rattus norvegicus; chronic) of 142 mg/kg-day, an NOAEL (Rattus norvegicus; chronic, duration: 2 years, hematological) of 0.82 mg/kg-day and an NOAEL (Rattus norvegicus; subchronic, duration: 90 days, oral, hematological) of 3.6 mg/kg-day. For the same molecule, the LC50 (Tagia sp.; acute, duration: 14 days, mortality) was > 500 mg/kg, the NOEC (Tagia sp.; chronic/long-term, duration: 56 days, reproduction) was > 378 mg/kg and the LEL (Typhlodromus pyri; duration: 7 days, mortality) was 384 g/ha. For the same molecule, the LEL (Typhlodromus pyri; reproduction) was 384 g/ha.
